Active and inactive are the calls of the source. The calls are words filed in the database; no cut-off is given here.

The target in data set [1] is NACHT, LRR and PYD domains-containing protein 3 (Homo sapiens) (UniProt Q96P20). The data set is described as follows: Inhibition of NLRP3 inflammasome activation in PMA-differentiated and LPS/NIG-stimulated human THP-1 cells assessed as decrease in pro-caspase-1 expression at 20 uM incubated for 1 hrs followed by LPS stimulation for 12 hrs and NIG addition for 2 hrs by western blot analysis. In kind it is cell-based. The note with it: time 15.0 hrs. (Immunoblotting shows a protein as a band on a membrane.)

Data set [2] has the same target. Kind of data set: Inhibition of NLRP3 inflammasome activation in PMA-differentiated and LPS/MSU-stimulated human THP-1 cells assessed as decrease in caspase-1 expression at 20 uM incubated for 1 hrs followed by LPS stimulation for 12 hrs and MSU addition for 6 hrs by western blot analysis. In kind it is cell-based. To be noted: time 19.0 hrs.
Data set [3] deals with J774.A1. Kind of data set: Antiinflammatory activity against LPS/ATP-induced […] cells assessed as inhibition of ROS release at 20 uM incubated for 1 hrs followed by LPS stimulation for 12 hrs and ATP addition for 0.5 hrs by DCFH-DA staining based flow cytometry analysis. In kind it is functional, cell-based. To be noted: Mus musculus, time 13.5 hrs. For orientation: Flow cytometry measures light scatter and fluorescence of single cells or particles in a stream.

Data set [4] deals with NACHT, LRR and PYD domains-containing protein 3 (Homo sapiens) (UniProt Q96P20). Kind of data set: Inhibition of NLRP3 inflammasome activation in PMA-differentiated and LPS/ATP-stimulated human THP-1 cells assessed as reduction in nuclear localization of NF-KappaB at 20 uM incubated for 1 hrs followed by LPS stimulation for 12 hrs and ATP addition for 0.5 hrs by DAPI staining based immunofluorescence analysis. It is filed as cell-based. To be noted: time 13.5 hrs.

Data set [5] shares this target. The data set is described as follows: Inhibition of NLRP3 inflammasome activation in PMA-differentiated and LPS/MSU-stimulated human THP-1 cells assessed as decrease in pro-caspase-1 expression at 20 uM incubated for 1 hrs followed by LPS stimulation for 12 hrs and MSU addition for 6 hrs by western blot analysis. In kind it is cell-based. To be noted: time 19.0 hrs.

Data set [6] has the same target. The data set is described as follows: Inhibition of NLRP3 inflammasome activation in PMA-differentiated and LPS/NIG-stimulated human THP-1 cells assessed as decrease of ASC oligomerization at 20 uM incubated for 1 hrs followed by LPS stimulation for 12 hrs and NIG addition for 2 hrs by DAPI staining based immunofluorescence analysis. In kind it is cell-based. The note with it: time 15.0 hrs.

The target is the same in data set [7]. The data set is described as follows: Inhibition of NLRP3 inflammasome activation in PMA-differentiated and LPS/MSU-stimulated human THP-1 cells assessed as decrease in pro-IL-1beta expression at 20 uM incubated for 1 hrs followed by LPS stimulation for 12 hrs and MSU addition for 6 hrs by western blot analysis. In kind it is cell-based. The note with it: time 19.0 hrs.

Data set [8] deals with RAW264.7. Kind of data set: Antiinflammatory activity in mouse RAW264.7 assessed as inhibition of LPS-induced NO production incubated for 1 hrs followed by LPS stimulation for 18 hrs by Griess reagent based assay. In kind it is functional, cell-based. For orientation: Nitrite, measured by Griess reagent, commonly stands in for NO production.
Data set [9] deals with NACHT, LRR and PYD domains-containing protein 3 (Homo sapiens) (UniProt Q96P20). The data set is described as follows: Inhibition of NLRP3 inflammasome activation in PMA-differentiated and LPS/NIG-stimulated human THP-1 cells assessed as decrease in caspase-1 expression at 20 uM incubated for 1 hrs followed by LPS stimulation for 12 hrs and NIG addition for 2 hrs by western blot analysis. It is filed as cell-based. To be noted: time 15.0 hrs.

The subject of data set [10] is RAW264.7. The data set is described as follows: Cytotoxicity against mouse RAW264.7 cells derived macrophage assessed as reduction in cell viability upto 40 uM incubated for 24 hrs by CCK-8 assay. To be noted: raw264.7, 24 h. In kind it is toxicity, cell-based.
Data set [11] concerns the target NACHT, LRR and PYD domains-containing protein 3 (Homo sapiens) (UniProt Q96P20). Kind of data set: Inhibition of NLRP3 inflammasome activation in PMA-differentiated and LPS/ATP-stimulated human THP-1 cells assessed as assessed as increase in potassium ion concentration at 5 to 20 uM incubated for 1 hrs followed by LPS stimulation for 12 hrs and ATP addition for 0.5 hrs by EPG-2 AM staining based flow cytometry. In kind it is cell-based. To be noted: dose 5-20 µM, time 13.5 hrs.

Data set [12] shares this target. The data set is described as follows: Inhibition of NLRP3 inflammasome activation in PMA-differentiated and LPS/ATP-stimulated human THP-1 cells assessed as assessed as increase in potassium ion concentration at 5 to 20 uM incubated for 1 hrs followed by LPS stimulation for 12 hrs and ATP addition for 0.5 hrs by EPG-2 AM staining based confocal microscopy. In kind it is cell-based. To be noted: dose 5-20 µM, time 13.5 hrs.

Data set [13] has the same target. The data set is described as follows: Inhibition of NLRP3 inflammasome activation in PMA-differentiated and LPS/ATP-stimulated human THP-1 cells assessed as suppression of P2X7 expression at 5 to 20 uM incubated for 1 hrs followed by LPS stimulation for 12 hrs and ATP addition for 0.5 hrs by Western blot analysis. In kind it is cell-based. The note with it: dose 5-20 µM, time 13.5 hrs, DDE = dose-dependent effect.

Data set [14] shares this target. Kind of data set: Inhibition of NLRP3 inflammasome activation in PMA-differentiated and LPS/ATP-stimulated human THP-1 cells assessed as downregulation of NF-KappaB p65 subunit phosphorylation at 5 to 20 uM incubated for 1 hrs followed by LPS stimulation for 12 hrs and ATP addition for 0.5 hrs by Western blot analysis. In kind it is cell-based. The note with it: dose 5-20 µM, time 13.5 hrs.

For data set [15], the system named is THP-1. The data set is described as follows: Cytotoxicity against human THP-1 cells derived macrophage assessed as reduction in cell viability upto 40 uM incubated for 24 hrs by CCK-8 assay. In kind it is toxicity, cell-based. The note with it: thp-1, 24 h.
The target in data set [16] is T1, P2X purinoceptor 7 (Homo sapiens) (UniProt Q99572).
T1 sequence (whole entry): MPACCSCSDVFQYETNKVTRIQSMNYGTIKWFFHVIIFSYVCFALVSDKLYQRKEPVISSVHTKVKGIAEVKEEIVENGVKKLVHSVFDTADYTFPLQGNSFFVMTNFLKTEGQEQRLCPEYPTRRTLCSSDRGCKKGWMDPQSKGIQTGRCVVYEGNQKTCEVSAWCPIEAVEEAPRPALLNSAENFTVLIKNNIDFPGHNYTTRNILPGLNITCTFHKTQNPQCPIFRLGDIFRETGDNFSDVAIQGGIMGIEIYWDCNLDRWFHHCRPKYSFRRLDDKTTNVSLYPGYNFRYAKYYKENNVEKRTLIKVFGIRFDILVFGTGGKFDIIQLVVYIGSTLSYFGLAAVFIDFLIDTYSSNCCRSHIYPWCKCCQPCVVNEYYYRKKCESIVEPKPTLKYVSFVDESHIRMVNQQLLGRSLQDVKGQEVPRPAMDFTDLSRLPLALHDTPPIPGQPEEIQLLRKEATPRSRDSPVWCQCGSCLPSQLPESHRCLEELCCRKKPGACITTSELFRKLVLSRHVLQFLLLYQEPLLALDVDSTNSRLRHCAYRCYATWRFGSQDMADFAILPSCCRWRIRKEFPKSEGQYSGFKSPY
The data set is described as follows: Inhibition of pronase mediated degradation of P2X7 in human THP-1 cells assessed as increase in P2X7 expression at 20 to 80 uM by Western blot analysis. In kind it is cell-based. To be noted: dose 20-80 µM.

Data set [17] deals with NACHT, LRR and PYD domains-containing protein 3 (Homo sapiens) (UniProt Q96P20). The data set is described as follows: Inhibition of NLRP3 inflammasome activation in PMA-differentiated and LPS/ATP-stimulated human THP-1 cells assessed as decrease in caspase-1 expression at 5 to 20 uM incubated for 1 hrs followed by LPS stimulation for 12 hrs and ATP addition for 0.5 hrs by western blot analysis. In kind it is cell-based. The note with it: dose 5-20 µM, time 13.5 hrs.

Data set [18] has the same target. Kind of data set: Inhibition of NLRP3 inflammasome activation in PMA-differentiated and LPS/ATP-stimulated human THP-1 cells assessed as assessed as increase in intracellular chloride concentration at 20 uM incubated for 1 hrs followed by LPS stimulation for 12 hrs and ATP addition for 0.5 hrs by MQAE staining based flow cytometry. It is filed as cell-based. The note with it: time 13.5 hrs.

For data set [19] the target is unchanged. Kind of data set: Inhibition of NLRP3 inflammasome activation in LPS/ATP-induced human THP-1 cells assessed as suppression of P2X7 expression at 5 to 20 uM preincubated for 1 hrs followed by LPS for 12 hrs and ATP 0.5 hrs in presence of A438079 by Western blot analysis. In kind it is cell-based. To be noted: dose 5-20 µM, time 13.5 hrs.

Chain of NACHT, LRR and PYD domains-containing protein 3 (Homo sapiens) (Q96P20 whole entry, the tested form may be a part): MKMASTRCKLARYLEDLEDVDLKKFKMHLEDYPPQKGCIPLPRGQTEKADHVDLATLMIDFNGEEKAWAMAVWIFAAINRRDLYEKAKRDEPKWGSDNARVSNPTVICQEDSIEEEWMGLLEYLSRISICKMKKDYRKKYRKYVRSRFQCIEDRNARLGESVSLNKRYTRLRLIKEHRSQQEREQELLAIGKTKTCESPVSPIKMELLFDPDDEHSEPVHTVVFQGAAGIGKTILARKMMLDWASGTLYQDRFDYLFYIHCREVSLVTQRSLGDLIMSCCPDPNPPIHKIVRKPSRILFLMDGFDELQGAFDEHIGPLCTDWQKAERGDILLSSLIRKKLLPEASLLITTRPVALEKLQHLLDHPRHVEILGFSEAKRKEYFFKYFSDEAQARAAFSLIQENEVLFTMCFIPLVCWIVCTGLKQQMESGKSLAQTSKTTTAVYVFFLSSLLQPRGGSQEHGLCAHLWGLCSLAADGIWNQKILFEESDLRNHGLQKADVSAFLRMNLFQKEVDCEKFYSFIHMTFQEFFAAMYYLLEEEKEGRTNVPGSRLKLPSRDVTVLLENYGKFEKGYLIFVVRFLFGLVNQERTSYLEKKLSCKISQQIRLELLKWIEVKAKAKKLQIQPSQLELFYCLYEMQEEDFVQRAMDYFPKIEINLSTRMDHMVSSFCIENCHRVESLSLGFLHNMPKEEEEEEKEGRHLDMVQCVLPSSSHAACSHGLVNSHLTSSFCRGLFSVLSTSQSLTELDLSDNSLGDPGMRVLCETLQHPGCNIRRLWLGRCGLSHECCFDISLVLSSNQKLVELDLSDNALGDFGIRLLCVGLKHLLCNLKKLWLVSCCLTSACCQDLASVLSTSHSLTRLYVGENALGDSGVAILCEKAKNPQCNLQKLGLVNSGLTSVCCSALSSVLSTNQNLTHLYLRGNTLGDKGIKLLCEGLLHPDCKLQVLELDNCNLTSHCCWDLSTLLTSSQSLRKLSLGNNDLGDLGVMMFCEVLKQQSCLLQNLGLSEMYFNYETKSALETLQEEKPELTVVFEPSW

The IC50 is the concentration that gives 50% inhibition. With `CC1(C)C(=O)C=C[C@]2(C)[C@H]3CC[C@@]4(C)[C@H](c5ccoc5)OC(=O)[C@H]5O[C@]54[C@]3(C)[C@H](O)C[C@@H]12` [DEACETYLGEDUNIN], the inhibition result in data set [1], in [2], in data set [4], in [5], in data set [6] and in data set [7] was “Active” each time. For the same molecule, the inhibition result in [9], in data set [11], in data set [12], in [14], in data set [16] and in data set [17] was “Active” each time. Further, the inhibition result in data set [18] and in [19] was “Active” in each case. Besides, the outcome in data set [3] was Active. Moreover, the IC50 in [8] is 9.19 µM. Further, the Activity entry in data set [10] and in [15] was “Non-Toxic” each time. In data set [13], the inhibition result is “Dde”.
